According to patent US20020025508A1, “Process for finding a protease inhibitor” (priority 2000, published 2002):
Residues, ends and D or L forms follow the SMILES beside them. *: point of attachment. Cbz = O=C(OCc1ccccc1)*

Tests used:
Format in all cases: cell-based, human
γ-secretase = γ-secretase HTS luciferase reporter assay (Aβ-KKK/Gal4 substrate, SteadyGlo); conditions: different concentrations; for inhibition of Aβ formation (luciferase signal): cell clones Aβ-KKK-ER/40, 59, 65 and Aβ-KKK/52 (also Aβ-KKK/40 for substance B), overnight
Text: H4 neuroglioma cells (Accession Number HTB 148 at the American Type Culture Collection, Manassas, Va., USA) were stably transfected under standard conditions with the reporter construct pFRLuc (Stratagene) which carries the gene for luciferase which is under the control of a promoter containing the Gal4 DNA binding domain. […] In order to prepare the Aβ-KKK/Gal4 construct, a sequence which contained the N-terminal signal sequence of APP and the first 55 amino acids of Aβ (Shoji, M. et al., Science, 1992; 158:126-129) was attached to the Gal4 coding sequence (Laughan, A. and Gesteland, R., Molec. Cell Biol., 1984, 4:260-267) by genetic engineering methods and cloned into the expression vector pcDNA3neo (Invitrogen). This construct was designated Aβ-KKK/Gal4. In order to insert an ER-retention signal in the substrate of the γ-secretase, the last nucleotides of the Gal4 were modified by genetic engineering methods so that they coded for amino acids KKLI. This construct was named Aβ-KKK-ER/Gal4. The cell clone obtained as described above was used for the second stable transfection with pcDNA3/Aβ-KKK/Gal4 or pcDNA3/Aβ-KKK-ER/Gal4 and the selection was carried out with neomycin under standard conditions (Sambrook and Maniatis, Molecular Cloning: A Laboratory Manual, Cold Spring Harbor Laboratory, Cold Spring Harbor, N.Y., 1989). Individual neomycin-resistant cell clones were tested for expression of luciferase. The clones with the highest expression were used for the substance analyses. All the transfections were carried out using the Fugene transfection system of Boehringer Mannheim in accordance with the manufacturer's instructions.
The doubly stable HTS cell line is seeded onto a 96/384 microtitre plate. When the cells achieved confluence they are incubated with the test substance in question for a specified length of time.
By the presence of an endogenous or exogenous γ-secretase activity in the H4 cells, the substrate (Aβ-KKK/Gal4) is cleaved proteolytically, whereupon the transactivator Gal4 can detach itself from the membrane and enter the cell nucleus. In the cell nucleus, Gal4 binds to the Gal4 DNA binding domain of the reporter construct and thus activates the expression of the luciferase. When a specific γ-secretase inhibitor is present the substrate cannot be cleaved and Gal4 remains bound to the substrate on the cell membrane, leading to a reduction and even total inhibition of the luciferase activity.
Cells are seeded onto 96/[…] well plates in DMEM whole medium (10% FCS, 1% glutamine, 1% penicillin/streptomycin) in a dilution of 1:5. […] Then, the luminescence is measured. […]

[1] = test system: HTS test cell lines Aβ-KKK-ER/59 and Aβ-KKK/52 (H4 cells); assay: Alamar Blue vitality (cytotoxicity) test; conditions: clones Aβ-KKK-ER/59 and Aβ-KKK/52, entire range of concentrations, parallel to luciferase test
Protocol: A possible toxic effect of the BFA (in different concentrations) on the cells was investigated using an Alamar Blue test (see below) which was carried out in parallel to the luciferase test.
Alamar Blue (Messrs. Biosource International, VE=100 ml, Cat.No. DAL 1100 (AL-01 -100)) was sterile-filtered. The seeding of the cells and substance incubation were carried out as in Example 1.
The Alamar blue incubation was carried out parallel to the luciferase test.
Alamar blue was diluted to 5% with whole medium (DMEM m 4.5 g/l glucose+10% FCS+1% glutamine+1% Pen/Strep). The medium was suction filtered. The cells were washed once with medium or PBS. One hundred microliters of (5%) Alamar blue were added (96 well plate) and a plate was incubated for 1 hour in the incubator at 37° C. and in 5% CO2. Fluorimetric measurement was carried out at an input wavelength of 544 nm, an emission wavelength of 590 nm and a measuring time of 0.3 s/well. The results are given as a percentage of the control.

[2] = test system: Aβ40 and Aβ42 secreted by U373/APP751 cell line; assay: ELISA of extracellular Aβ40 and Aβ42 secreted by U373/APP751 cells
Protocol: Substance A was also active in a cellular test system in which the extracellular content of Aβ40 and Aβ42 secreted by the U373 cell line (U373: ATCC No. HTB 14) was determined. This cell line, U373/APP751, is an astrocytoma cell line which overexpresses human APP751 and secretes large amounts of Aβ40 (about 1000 pg/ml/4 hours with 5×10^7 cells in 15 ml of medium) and Aβ42 (about 1000 pg/ml/4 hours with 5×10^7 cells in 15 ml of medium). The measurement is carried out by ELISA (Steiner, H. et al., J. Biol. Chem, 1998, 273:32322-32331).

With `C[C@H]1CCC/C=C/[C@@H]2C[C@H](O)C[C@H]2[C@H](O)/C=C/C(=O)O1` [BFA, Brefeldin A, reference compound] the “BFA effect on luciferase signal” value (γ-secretase; cell clone Aβ-KKK/52 (without ER retention signal), 6 hours) was “clear BFA effect could be seen” and the “loss of vitality (toxic effect on the cells)” value [1] was “No loss of vitality”.
For `CCCCNC(=O)[C@@H](C[C@H](O)[C@H](CC1CCCCC1)NCCCC(C)C)C(C)C` [Substance A], the “inhibition of Aβ formation (luciferase signal)” value (“inhibition of Aβ formation” for short) (γ-secretase) was “inhibits Aβ formation in a manner dependent on concentration”, the Aβ40 secretion [2] was “greatly reduced in concentration-dependent manner” and the Aβ42 secretion [2] was “increased at sub-inhibitory doses and then also inhibited at higher doses”.
`CC(C)C(NC(=O)OCc1ccccc1)C(=O)NC(C=O)Cc1ccccc1` (stereo not drawn) [Substance B] (Cbz-Val-Phe-aldehyde; configuration not given here) was tested, and the “inhibition of Aβ formation” value (γ-secretase) was “does not inhibit Aβ formation in concentration-dependent manner”.
In the case of `Cc1nccn1Cc1ccccn1` [Substance C], the “inhibition of Aβ formation” value (γ-secretase) is reported as “does not inhibit Aβ formation in concentration-dependent manner”.
